# Reference: BindingDB's records for doi:10.1124/mol.63.5.1082 (Johnson and Johnson Pharmaceutical Research and …, 2003)
# Values joined by “and” are separate entries in the source; they are usually repeats but may differ in a detail not shown here. Identical values can stand only once.
# Target: Metabotropic glutamate receptor 1 (Rattus norvegicus, UniProt P23385)
# Sequence (P23385 whole entry): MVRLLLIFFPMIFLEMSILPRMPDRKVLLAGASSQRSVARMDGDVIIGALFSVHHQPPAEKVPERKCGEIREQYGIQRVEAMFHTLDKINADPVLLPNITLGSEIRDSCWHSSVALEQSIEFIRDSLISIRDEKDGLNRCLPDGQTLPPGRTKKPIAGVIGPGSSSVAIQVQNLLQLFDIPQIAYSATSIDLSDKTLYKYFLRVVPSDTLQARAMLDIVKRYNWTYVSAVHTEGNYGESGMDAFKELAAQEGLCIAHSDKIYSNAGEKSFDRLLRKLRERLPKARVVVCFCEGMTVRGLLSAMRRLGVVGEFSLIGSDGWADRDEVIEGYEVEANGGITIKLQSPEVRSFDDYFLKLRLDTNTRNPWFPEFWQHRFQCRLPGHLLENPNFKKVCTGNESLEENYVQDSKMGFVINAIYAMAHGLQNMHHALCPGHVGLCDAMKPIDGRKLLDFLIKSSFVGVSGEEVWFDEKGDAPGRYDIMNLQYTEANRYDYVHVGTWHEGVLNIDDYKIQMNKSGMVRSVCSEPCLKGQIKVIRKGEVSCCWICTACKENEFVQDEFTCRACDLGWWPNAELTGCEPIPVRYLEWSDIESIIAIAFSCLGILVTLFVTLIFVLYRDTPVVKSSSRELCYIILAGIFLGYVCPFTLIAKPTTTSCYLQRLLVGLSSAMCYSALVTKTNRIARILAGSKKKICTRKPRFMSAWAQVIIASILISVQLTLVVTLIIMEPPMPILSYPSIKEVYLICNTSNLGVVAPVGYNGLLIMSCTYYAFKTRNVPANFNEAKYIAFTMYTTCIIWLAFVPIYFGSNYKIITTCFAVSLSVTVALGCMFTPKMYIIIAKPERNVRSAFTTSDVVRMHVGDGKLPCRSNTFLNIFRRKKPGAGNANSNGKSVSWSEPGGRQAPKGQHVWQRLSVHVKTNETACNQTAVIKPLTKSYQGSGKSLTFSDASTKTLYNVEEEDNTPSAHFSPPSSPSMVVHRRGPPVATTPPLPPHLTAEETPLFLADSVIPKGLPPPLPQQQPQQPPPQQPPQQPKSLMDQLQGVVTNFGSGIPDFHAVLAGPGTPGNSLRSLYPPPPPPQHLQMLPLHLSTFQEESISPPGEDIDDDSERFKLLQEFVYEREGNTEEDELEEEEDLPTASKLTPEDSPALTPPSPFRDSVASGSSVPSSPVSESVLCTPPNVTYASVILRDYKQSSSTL
row,Ki,Compound
1,1000 nM,O=C(Cc1ccccc1)c1ccc2nc3c(cc2c1)CCCO3
2,1000 nM and 4900 nM,CCOC(=O)C12CC1C(N=O)c1ccccc1O2 (stereo not drawn) [CAS_5126051]
3,> 10000 nM,"N[C@H](C(=O)O)c1cc(O)cc(O)c1 [amino(3,5-dihydroxyphenyl)acetic acid]"
